Reference: patent US20210052532A1, “COMPOSITIONS AND METHODS FOR TREATMENT OF INSULIN RESISTANCE” (TEMPLE UNIVERSITY - OF THE COMMONWEALTH SYSTEM OF HIGHER …, priority 2018, published 2021)

Assays:
[1] = tested on: GLUT4-SNAP protein; test: Formation of K264-HNE GLUT4 adduct in 3T3-L1 cells overexpressing GLUT4-SNAP (MRM); format: cell-based; settings: 4-HNE 20 μM for 4 hr, FIG. 3
Source text: FIG. 3 provides typical MRM data showing an increase in the transitions of HNE-induced K264-HNE adduct (left panel) which were used to calculate the amounts of carbonylated GLUT4 (right panel). Four transitions of the GLUT4 peptide found in humans are shown. The sequence of the carbonylated GLUT4 peptide LTGWADVSGVLAELKDEK-4HNE (SEQ ID NO:1) is depicted.
Certain conditions such as overnutrition can lead to oxidative stress, and the generation of reactive aldehydes such as 4-HNE, which react with cysteine, lysine and histidine residues of proteins via Michael addition and Schiff base formation. 4-HNE can form HNE-Michaels adducts on GLUT4, the major insulin-facilitated glucose transporter in adipose tissue. 3T3-L1 adipocytes retrovirally transduced to overexpress the GLUT4-SNAP protein formed a K264-HNE GLUT4 adduct upon treatment with 4-HNE. The same K264-HNE GLUT4 adduct is elevated in the fat tissue of human pre-diabetic and diabetic individuals.
GLUT4 carbonylations impair its function. To directly link the function impairment due to GLUT4 carbonylations to insulin resistance in vitro, GLUT4-SNAP fusion construct were generated and retroviral transduction in 3T3-L1 adipocytes were performed to overexpress the GLUT4-SNAP protein. […] The glucose uptake was measured by an MRM method.

[2] = tested on: 3T3-L1 adipocytes; test: Insulin-stimulated glucose uptake in 3T3-L1 adipocytes, measured by MRM; format: cell-based; settings: 3T3-L1 adipocytes treated 4 hr with 20 M (so in the source) of 4-HNE or H2O2 or both, then 100 nM insulin 60 min; FIG. 4 legend: 4-HNE 20 μM, H2O2 100 μM
Description: FIG. 4 graphically depicts glucose transport impairment in 3T3-L1 cells when exposed to 4-HNE (20 μM) and/or H2O2 (100 μM) for 4 hr.
(§1) GLUT4 carbonylations impair its function. To directly link the function impairment due to GLUT4 carbonylations to insulin resistance in vitro, GLUT4-SNAP fusion construct were generated and retroviral transduction in 3T3-L1 adipocytes were performed to overexpress the GLUT4-SNAP protein. Twenty-four hours after the transduction, the cells were treated with and without 20 μM of 4-HNE for an additional 4h. This 4-HNE dose was chosen because it was similar to the physiological levels and was non-toxic. […] 3T3-L1 adipocytes were treated with either 20 M of 4-HNE or H2O2 or the combination of both for 4 hr and were then stimulated with 100 nM insulin for 60 min. The glucose uptake was measured by an MRM method.

[3] = tested on: 3T3-L1 adipocytes; test: Toxicity of the 4-HNE dose to the treated cells; format: cell-based; settings: 20 μM of 4-HNE, 4h, transduced 3T3-L1 adipocytes
Description: as §1

[4] = Adduct formation with the reactive aldehyde 4-HNE; settings: diverts 4-HNE from damaging GLUT-4 by carbonylation
Source text: (§2) Without wishing to be bound by any theory, compounds of Formula I-III form adducts with reactive aldehydes such as 4-HNE, thereby diverting 4-HNE from damaging proteins such as GLUT-4, by carbonylation. […] Restoration of GLUT-4 function results in enhancement or restoration of adipocyte insulin sensitivity and the resumption or enhancement of glucose uptake.

[5] = tested on: adipocyte glucose uptake; test: Overnutrition-induced adipocyte glucose uptake impairment; format: cell-based; settings: adipocytes
Source text: as §2

| SMILES | formation of the K264-HNE adduct [1] | glucose uptake reduced / decrease in the glucose uptake [2] [%] | toxicity of dose [3] | adduct formation with 4-HNE [4] | effect on glucose uptake impairment [5] |
| --- | --- | --- | --- | --- | --- |
| CCCCCC(O)/C=C/C=O (stereo not drawn) [Example 4-HNE, 4-hydroxynonenal] | induced the formation of the K264-HNE adduct | 32 | non-toxic | – | – |
| OO [Example H2O2] | – | 66 | – | – | – |
| Cl.Cl.NCCCNCCCC[C@H](N)C(=O)O [Example 4, (S)-2-amino-6-((3-aminopropyl)amino)hexanoic acid dihydrochloride] | – | – | – | forms an adduct with 4-HNE | reversing overnutrition-induced glucose uptake impairment |
